The term inhibition denotes how much of the control response was suppressed. A low value points to little suppression.

Results on one molecule are retold here after patent US6326526A, “Melatonin receptor-deficient mice and uses thereof” (Bristol-Myers Squibb Company, priority 2000, dated 2001).

Some results are limits rather than exact numbers.

Test [1] deals with SCN slices from wild-type mice (multiunit activity). Nature of the test: SCN multiunit recordings, melatonin-induced inhibition of neuronal firing, wild-type mice. The format is cell-based, mouse. The protocol:
(§1) Adult male wild-type and homozygous mutant mice were housed in LD 12:12 for a minimum of three weeks prior to experimentation. After the adaptation period, the mice were killed 2.0 to 4.5 hours after lights-on, and brains were rapidly dissected and placed into ACSF medium containing 116.3 mM NaCl, 5,4 mM KCl, 1.0 mM NaH2 PO4, 26.2 mM NaHCO3, 1.8 mM CaCl2, 0.8 mM MgSO4, 24.6 mM dextrose, and 5 mg/l Gentamicin sulphate, pH 7.5. A block of tissue containing the hypothalamus was dissected from the brain and transferred to a manual tissue chopper where coronal hypothalamic brain slices (400 μm in thickness) containing the SCN were prepared. Slices were placed in a Haas-type brain slice chamber (Haas H. L., et al., J. Neurosci. Methods 1:323-325, 1979; Medical Systems Corp.) and gauze strips placed over the slices in the vicinity of the SCN to raise the fluid level above the slices. They were continually superfused with ACSF medium warmed to 37° C. To record multiple-unit SCN electrical activity, a 76 μm-diameter, teflon-coated platinum-iridium wire electrode was lowered into the brain slice in the SCN (Bouskila, Y., and Dudek, F. E., Proc. Natl. Acad. Sci. USA 90:3207-3210, 1993). This electrical activity was amplified, and the number of electrical events was counted with a window discriminator (Fintronics Inc., Orange, Conn.). Data were collected and analyzed by computer, using Brainwave™ (Data Waver Technologies, Broomfield, Colo.) or Spike 2™ (Cambridge Electronic Design, Cambridge, Mass.) software. The average number of electrical events in successive 1-minute intervals was determined and plotted against the circadian time of recording. Slices were excluded if their viability was compromised on day 2 of recording.
Melatonin was prepared as a 100 μM stock solution in 100% ethanol, which was serially diluted with ACSF medium to yield four melatonin concentrations between 0.1 and 100 nM. A stock solution of vehicle (100% ethanol) was serially diluted with ACSF medium to yield the corresponding vehicle for each melatonin concentration. Melatonin or vehicle was applied by gravity flow in the bath for 30 minutes at each concentration before switching to the next solution. […] In the mouse experiments at circadian time 4.5-6.5 where only the single highest vehicle concentration was used as a comparator, the vehicle was applied for 30 minutes prior to the application of melatonin. A programmable automatic solution switching system (AutoMate Scientific Inc., Oakland, Calif.) was employed to time solution applications.
(§2) The maximum percent inhibition of SCN neuronal firing during each 30 minutes application of melatonin or vehicle was calculated with respect to the average multiunit firing rate during the 5 minute period prior to the first application of a series, and plotted.

Test [2] deals with SCN slices from Mel1a receptor-deficient (homozygous mutant) mice (single-unit electrical activity rhythm). Put plainly: SCN single unit recordings, phase shift of electrical activity rhythm, Mel1a receptor-deficient mice. The class given is cell-based, mouse. The protocol:
(§3) Mice were housed in LD 12:12 for three weeks prior to experimentation. After adaptation, mice were killed by decapitation during the light phase of the LD cycle. Hypothalamic slices (500 μm) were prepared using a tissue chopper and incubated at 37° C., as previously described (Liu, C., and Gillette, M. U., J. Neurosci. 16:744-751, 1996). For most experiments, perfusion was discontinued during the 1-hour treatment with melatonin or vehicle (0.0001% ethanol in perfusion medium). For the pertussis toxin experiment, perfusion was discontinued for 6 hours, ending after the vehicle or melatonin treatment. At the end of treatment, the medium in the chamber was replaced, and perfusion was resumed with melatonin-free medium. Single units from the SCN were recorded the following day with glass microelectrodes (Liu, C., and Gillette, M. U., J. Neurosci. 16:744-751, 1996). Signals were amplified, filtered to a band width of 0.3-3 kHz, and stored (MacADIO II, GW Instruments, Somerville, Mass.). Voltage pulses exceeding preset recording threshold were detected on-line by custom software. Off-line analysis assigned a cluster of spikes of similar amplitude and width to each unit recorded (Meister, M., et al., J. Neurosci. Methods 51:95-101, 1994). Firing rate data were analyzed as previously described to determine the time-of-peak in the activity rhythm (Liu, C., and Gillette, M. U., J. Neurosci. 16:744-751, 1996).

The test system of test [3] is rat SCN single-unit activity rhythm. Particulars: rats; read-out: EC50 of phase-shifting effect on the single-unit activity rhythm; cited from earlier work.
For test [4], the system named is SCN slices from wild-type mice (single-unit electrical activity rhythm). Nature of the test: SCN single unit recordings, phase shift of electrical activity rhythm, wild-type mice. The format is cell-based, mouse. On the procedure: as §3
Test [5] deals with SCN slices from Mel1a receptor-deficient (homozygous mutant) mice (multiunit activity). Particulars: 0.1 to 100 nM, CT 9.5-11.5 and CT 4.5-6.5, relative to vehicle. On the procedure:
as §1, with “Slices were placed in a Haas-type brain slice chamber (Haas H. L., et al., J. Neurosci. Methods 1:323-325, 1979; Medical Systems Corp.) and gauze strips placed over the slices in the vicinity of the SCN to raise the fluid level above the slices. They were continually superfused with ACSF medium warmed to 37° C. To record multiple-unit SCN electrical activity, a 76 μm-diameter, teflon-coated platinum-iridium wire electrode was lowered into the brain slice in the SCN (Bouskila, Y., and Dudek, F. E., Proc. Natl. Acad. Sci. USA 90:3207-3210, 1993).” left out, “Slices were excluded if their viability was compromised on day 2 of recording.” left out
as §2

In turn, `COc1ccc2[nH]cc(CCNC(C)=O)c2c1` [melatonin] displayed an inhibition at 0.001 µM in test [1] (Mus musculus, 1 nM, at night CT 18, wild-type C57BL/6 mice, n=8) of 33.9 ± 3.9%. The EC50 was 0.412 nM in test [1] (Mus musculus, 0.1-100 nM, 30 min each, CT 4.5-6.5, day 2 in culture) and under 0.1 nM in test [3]. Further, the “Percent inhibition of SCN firing rate” value in test [1] (increasing melatonin 0.1-100 nM, CT 4.5-6.5 of day 2 (FIG. 4A)) is “over 30%”; in test [1] (melatonin 0.1-100 nM, CT 9.5-11.5 of day 1, plateau (FIG. 4B)) it was “about 13%”. Further, in test [2], the “Circadian time of the activity peak” value was determined as 6.6 ± 0.1 h. Further, in test [2], the “Phase of the firing rhythm peak” value was “not shifted”. Further, the “Phase shift (phase advance) in the electrical activity rhythm peak” value in test [2] (1 nM, CT 9.5-10.5) was “approximately 4 hour”. Further, the “Phase advance in circadian phase” value is 3.2 ± 0.1 h in test [2] (1 nM, CT 9.5-10.5, after 5-hour static bath of normal medium, n=3) and “approximately 4 hour” in test [4] (application at CT 9.5-10.5, preliminary studies of wildtype mice). For the same molecule, the “Phase shift in the electrical activity rhythm” value in test [4] (application from CT 5.5-6.5) is “did not elicit significant phase shifts”. In addition, in test [4] (application from CT 5.5-6.5, n=3), the “CT of activity peak” value amounted to 6.8 ± 0.3 h. In addition, the “Inhibition of SCN multiunit activity” value in test [5] is given as “unable to significantly inhibit SCN multiunit activity”.
